Tests used:
KSP motor domain = biological target: T1, KSP motor domain (Homo sapiens, UniProt P52732); test: biochemical; settings: KSP inhibitory activity, end-point assay; class symbols (Table 1); read-out: IC50
T1 sequence (P52732 18-359 limits assumed): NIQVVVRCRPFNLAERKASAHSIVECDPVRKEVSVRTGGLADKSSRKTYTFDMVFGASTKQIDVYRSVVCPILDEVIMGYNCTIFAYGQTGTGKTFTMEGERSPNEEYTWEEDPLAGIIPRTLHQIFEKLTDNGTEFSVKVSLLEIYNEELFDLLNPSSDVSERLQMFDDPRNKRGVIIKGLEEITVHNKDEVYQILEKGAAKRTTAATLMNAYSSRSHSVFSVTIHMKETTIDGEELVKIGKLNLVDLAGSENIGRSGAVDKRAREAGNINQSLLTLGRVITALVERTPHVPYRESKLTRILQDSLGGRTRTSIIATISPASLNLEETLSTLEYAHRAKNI

melting point [°C]	SMILES	IC50 (KSP motor domain) [µM]
84 to 86	CCOC(=O)c1nc2cc3c(nc2s1)CCC(C(C)(C)C)C3 (racemic)	–
–	CC(C)(C)C1CCc2nc3sc(C#N)c(Cl)c3cc2C1 (centres unmarked) [Example 111, 6-tert-Butyl-3-chloro-5,6,7,8-tetrahydrothieno[2,3-b]quinoline-2-carbonitrile]	> 10
–	CC(C)(C)[C@@H]1CCc2nc3sc(C(=O)N[C@H](CN)c4cccc(NCc5ccncc5)c4)cc3cc2C1 [Example 281, 6(R)-tert-Butyl-5,6,7,8,-tetrahydro-thieno[2,3-b]quinoline-2-carboxylic acid (2(S)-amino-1-{3-[(pyridin-4-ylmethyl)-amino]-phenyl}-ethyl)-amide]	< 0.1
–	CC(C)(C)[C@@H]1CCc2nc3sc(C(=O)N[C@H](CN)c4cccc(NC(=O)c5cncc(N)n5)c4)cc3cc2C1 [Example 260]	< 0.1
–	N#Cc1sc2nc3c(cc2c1N)CC(=O)CC3 [Example 53]	> 10
